One assay deals with OA pathway. The assay can be described thus: RpMatB reaction system with added GPP and NphB M31^S. Type of assay: biochemical. The conditions noted are these: increasing GPP (0.5-2 mM). The method, then:
(§1) OA/DA Reaction Conditions using MatB. The conditions for reactions using RpMatB to produce malonyl-CoA were as follows: 15 mM malonate, 5 mM hexanoate or 5 mM butyrate, 1 mM CoA, 4 mM ATP, 25 mM creatine phosphate, 10 mM KCl, 5 mM MgCl2 and 50 mM Tris pH 8.0, 1.3 μM RpMatB, 4.9 μM CsAAE3, 2.9 μM CsOLS, 46.6 μM CsOAC, 7.6 μM GsPpase, 2.6 μM ADK and 2 units of CPK (from Sigma Aldrich). For the additive reactions GPP (0.5-2 mM), OA (0.25-2 mM) and DA (0.25-5 mM) were added before the reaction was initiated.
In an effort to reduce OA/DA inhibition, experiments were performed to remove OA/DA from the reaction as it is made by converting it directly into CBGA/CBGVA. To test this GPP and a stabilized CBGA synthase were added to the system (FIG. 6). The CBGA synthase used, NphB M31^S, is a stabilized version of the soluble enzyme designed previously (Valliere et al., Nat. Commun. 10:565, 2019). […] Experiments were performed to test the effect of GPP concentration on OA production. At just 500 μM GPP, OA production decreased 40% percent (FIG. 2C).

The test system of assay [1] is MatB pathway (RpMatB, CsAAE3, CsOLS, CsOAC). The assay can be described thus: OA/DA production using the MatB pathway with additives. Type of assay: biochemical. The conditions noted are these: titer at 4 hours relative to control. The method, then:
as §1
For the time course, the reactions were quenched (see below) at various time points between 5 mins and 5 hours. The reactions with additives were quenched at 4 hours.
HPLC Sample Analysis. All samples were quenched by 4-fold dilution into methanol (samples with a higher concentration of analyte were diluted up to 10-fold). The protein precipitate was removed by centrifugation at 16,000×g for 5 minutes and the supernatant was transferred to an LC vial for analysis.
Samples were analyzed by reverse phase chromatography on a Syncronis C8 column (4.6×100 mm) using a Thermo Ultimate 3000 HPLC. The column compartment temperature was set to 40° C., and the flow rate was 1 mL/min. The sample inject volume was 20 μL (full loop). The compounds were separated using a gradient elution with water+0.1% TFA (solvent A) and acetonitrile+0.1% TFA (solvent B) as the mobile phase. Solvent B was held at 20% for the first minute. Then solvent B was increased to 95% B over 4 minutes, and held at 95% B for 3 minutes. The column was then re-equilibrated to 20% B for three minutes, for a total run time of 11 minutes. Standards were used to identify the retention time, and to produce an external standard curve for quantification.

For a further assay, the target named is T1, OLS (Cannabis sativa, UniProt B1Q2B6).
T1 construct: CsAAE3, CsOLS and CsOAC were synthesized and cloned into the pET28(+) vector with Nde1/Xho1 restriction sites; made in house; host or cells: E. coli C43 BL21 (DE3)
T1 sequence (B1Q2B6 with tags, fused parts or gaps): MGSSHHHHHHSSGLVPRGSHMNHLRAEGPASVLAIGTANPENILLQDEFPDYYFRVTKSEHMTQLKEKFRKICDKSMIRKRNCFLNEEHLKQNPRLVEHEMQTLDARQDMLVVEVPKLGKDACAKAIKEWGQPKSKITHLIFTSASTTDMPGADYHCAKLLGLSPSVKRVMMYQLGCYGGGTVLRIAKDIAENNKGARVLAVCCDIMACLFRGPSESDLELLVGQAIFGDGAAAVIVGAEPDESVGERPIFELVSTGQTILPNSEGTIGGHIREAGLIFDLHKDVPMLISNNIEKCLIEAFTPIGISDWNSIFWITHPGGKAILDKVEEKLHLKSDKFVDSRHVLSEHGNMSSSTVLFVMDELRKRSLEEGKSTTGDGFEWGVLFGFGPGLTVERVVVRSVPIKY
The assay can be described thus: OLS activity assay (inhibition by OA/DA). Type of assay: biochemical, C. sativa. Conditions: for inhibition of OLS activity: individual enzymes screened, 250 μM OA or 1 mM DA. As to the method:
OLS Activity Assay. For the inhibition experiments the conditions were altered to: 1 mM malonyl-CoA, 400 μM hexanoyl-CoA in 50 mM citrate buffer, pH 5.5 in a final volume of 200 μL. Either 1% ethanol, 250 μM OA or 1 mM DA was added to the reaction, and then the reactions were initiated by adding 0.65 mg/mL OLS. 50 μL aliquots were quenched at 2, 4, 6 and 8 minutes in 150 μL of methanol. The reactions were vortexed briefly and centrifuged at 16,000×g for 2 minutes to pellet the proteins. The supernatant was analyzed by HPLC. The raw peak areas of HTAL, PDAL and olivetol were summed and plotted against time to determine the rate. The rate of the OA supplemented reaction and the DA supplemented reaction were normalized to the ethanol control.

3 molecules from patent publication US20230348866A1, “BI[…] FOR THE PRODUCTION OF CANNABINOIDS AND OTHER […]” (The Regents of the University of California, priority 2019, published 2023) can be followed below.

Regarding `CC(C)=CCC/C(C)=C/COP(=O)(O)OP(=O)(O)O` [GPP, geranyl pyrophosphate], the “overall production of OA and CBGA” value in the assay with OA pathway is “decrease”. Also, in assay [1] (500 μM GPP added), the “decrease of OA production” value is listed as 40%.
`CCCCCc1cc(O)cc(O)c1C(=O)O` [OA, olivetolic acid]: the “inhibition of OLS activity” value on OLS is recorded as “strongly inhibited”. For the same molecule, the “inhibition of enzyme activity, comparison among enzymes” value at OLS (reaction relevant conditions) is listed as “CsOLS is the most inhibited”. Also, the “reduction of DA production” value in assay [1] (1 mM OA added at time zero) stood at 90%.
As to `CCCc1cc(O)cc(O)c1C(=O)O` [DA, divarinic acid], the “inhibition of OLS activity” value against OLS is given as “strongly inhibited”. The “reduction of OA production” value in assay [1] (1 mM DA added at time zero) is recorded as 30%.
